Measured values reported in patent US20260200890A1, “ADAR1 INHIBITORS AND METHODS OF USING THE SAME” (AVAMMUNE THERAPEUTICS INC., priority 2022, published 2026).

biological target: T1, ADAR1 (Homo sapiens, UniProt P55265); assay: ADAR1 Inhibition Assay (IFN fold-induction, Quanti-Luc luminescence, p110 KO A549 dual cells); assay type: cell-based; conditions: IFN fold-induction vs DMSO, 24 and 48 h
T1 construct: endogenous in cells; host or cells: p110 KO A549 dual cells
T1 sequence (P55265 1-1226): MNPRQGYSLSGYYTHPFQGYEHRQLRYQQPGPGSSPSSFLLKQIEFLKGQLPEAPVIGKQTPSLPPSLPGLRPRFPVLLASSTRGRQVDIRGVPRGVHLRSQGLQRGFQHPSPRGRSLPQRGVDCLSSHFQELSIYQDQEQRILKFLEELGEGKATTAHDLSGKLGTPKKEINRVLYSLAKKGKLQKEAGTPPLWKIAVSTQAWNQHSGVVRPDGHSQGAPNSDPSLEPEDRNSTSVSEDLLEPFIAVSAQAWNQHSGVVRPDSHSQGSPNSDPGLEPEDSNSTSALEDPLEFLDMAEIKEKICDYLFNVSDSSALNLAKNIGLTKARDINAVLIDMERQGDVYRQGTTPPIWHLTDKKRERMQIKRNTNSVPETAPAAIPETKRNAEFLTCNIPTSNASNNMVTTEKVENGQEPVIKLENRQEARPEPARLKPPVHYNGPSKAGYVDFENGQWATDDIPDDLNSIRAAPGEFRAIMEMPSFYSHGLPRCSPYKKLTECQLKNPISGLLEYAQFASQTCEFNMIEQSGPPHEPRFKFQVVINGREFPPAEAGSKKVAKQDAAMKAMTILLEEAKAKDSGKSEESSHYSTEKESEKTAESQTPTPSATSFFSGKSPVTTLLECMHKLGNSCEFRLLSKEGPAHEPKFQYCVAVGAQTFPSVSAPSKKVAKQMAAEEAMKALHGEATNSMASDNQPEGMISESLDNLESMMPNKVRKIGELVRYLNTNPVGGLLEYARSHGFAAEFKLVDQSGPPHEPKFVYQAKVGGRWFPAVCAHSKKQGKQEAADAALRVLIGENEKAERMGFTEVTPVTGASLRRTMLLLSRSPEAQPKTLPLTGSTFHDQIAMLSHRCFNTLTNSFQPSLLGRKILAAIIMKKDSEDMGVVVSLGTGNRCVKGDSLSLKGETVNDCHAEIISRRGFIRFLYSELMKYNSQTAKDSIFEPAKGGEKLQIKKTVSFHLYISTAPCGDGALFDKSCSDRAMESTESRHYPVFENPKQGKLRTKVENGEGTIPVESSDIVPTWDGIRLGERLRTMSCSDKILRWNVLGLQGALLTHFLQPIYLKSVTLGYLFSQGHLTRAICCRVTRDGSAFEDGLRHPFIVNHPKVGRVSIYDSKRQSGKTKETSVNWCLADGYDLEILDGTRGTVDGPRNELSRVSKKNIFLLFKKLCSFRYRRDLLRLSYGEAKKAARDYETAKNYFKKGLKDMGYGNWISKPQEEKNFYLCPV
Protocol: An ADAR1 Inhibition Assay was used to determine the biological activity (EC50) of compounds disclosed herein. 100 μL of p110 KO A549 dual cell suspension in supplemented DMEM (20,000 cells per well) was added into a flat bottom 96 well plate. Next day, post media change, 180 μL of supplemented DMEM was added. 20 μL of test compound or positive control was added to the respective wells (Final concentration of DMSO is 1%). The plate was incubated for 24 and 48 hours at 37° C. in a 5% CO2 incubator. After 24 and 48 h, 20 μL of cell suspension was taken in black well plates and 50 μL of Quanti-Luc was added to each well and luminescence was measured using a microplate reader (Spectra Max). IFN fold-induction was plotted considering DMSO as control using the relative luminescence unit (RLU) values. (Fold induction: Sample RLU/Average DMSO RLU).

Row | Structure (SMILES) | EC50 [µM]
1 | NS(=O)(=O)c1cccc(C(=O)OCC(=O)Nc2ccc(-c3ccccc3)s2)c1 [Compound 78] | > 100
2 | CCOC(=O)c1cc(-c2ccccc2)sc1NC(=O)[C@H](CC)OC(=O)c1cccc(S(N)(=O)=O)c1 [Compound 79] | > 100
3 | CCOC(=O)c1cc(-c2ccccc2)sc1NC(=O)[C@H](CC)OC(=O)c1cccc(NS(C)(=O)=O)c1 [Compound 80] | > 100
4 | CCOC(=O)c1cc(-c2ccc(C(C)C)cc2)sc1NC(=O)COC(=O)c1cccc(S(N)(=O)=O)c1 [Compound 81] | > 100
5 | CCOC(=O)c1cc(-c2ccccc2)sc1NC(=O)COC(=O)c1cccc(OS(C)(=O)=O)c1 [Compound 82] | > 100
6 | Cc1cc(C#N)c(NC(=O)COC(=O)c2cccc(S(N)(=O)=O)c2)s1 [Compound 83] | > 100
7 | CS(=O)(=O)Oc1cccc(C(=O)OCC(=O)Nc2sc(-c3ccccc3)cc2C(N)=O)c1 [Compound 84] | > 100
8 | CS(=O)(=O)Nc1cccc(C(=O)OCC(=O)Nc2sc(-c3ccccc3)cc2C(=O)NC2CC2)c1 [Compound 85] | > 100
9 | CCOC(=O)c1c(NC(=O)COC(=O)c2cccc(NS(C)(=O)=O)c2)sc2c1CCC2 [Compound 86] | > 100
10 | CCOC(=O)c1cc(-c2ccccc2)sc1NC(=O)c1cccc(C#N)c1 [Compound 88] | > 100
11 | CCOC(=O)c1c(NC(=O)COC(=O)c2cccc(NS(C)(=O)=O)c2)sc2c1CCCC2 [Compound 89] | > 100
12 | CS(=O)(=O)Nc1cccc(C(=O)OCC(=O)Nc2sccc2C#N)c1 [Compound 90] | > 100
13 | CCOC(=O)c1c(NC(=O)COC(=O)c2cccc(C#N)c2)sc2c1CCCC2 [Compound 91] | > 100
14 | CCOC(=O)c1cc(-c2ccccc2)sc1NC(=O)COC(=O)c1cccc(NS(=O)(=O)c2ccc(F)cc2)c1 [Compound 93] | > 100
15 | CCOC(=O)c1c(-c2ccccc2)csc1NC(=O)COC(=O)c1cccc(NS(C)(=O)=O)c1 [Compound 95] | > 100
16 | CCOC(=O)c1cc(-c2ccccc2)sc1NC(=O)COC(=O)c1cccc(C(=O)O)c1 [Compound 96] | > 100
17 | CCOC(=O)c1ccsc1NC(=O)COC(=O)c1cccc(NS(C)(=O)=O)c1 [Compound 97] | > 100
18 | CCOC(=O)c1cc(-c2ccc(OC(F)(F)F)cc2)sc1NC(=O)COC(=O)c1cccc(NS(C)(=O)=O)c1 [Compound 100] | > 100
19 | CCOC(=O)c1cc(-c2ccccc2)sc1NC(=O)COC(=O)c1ccc(NS(C)(=O)=O)cc1 [Compound 101] | > 100
20 | CCOC(=O)c1cc(-c2ccccc2)sc1NC(=O)COC(=O)c1cccc(NS(=O)(=O)c2ccc(C)cc2)c1 [Compound 102] | > 100
21 | CCOC(=O)c1cc(-c2ccc(S(C)(=O)=O)cc2)sc1NC(=O)COC(=O)c1cccc(NS(C)(=O)=O)c1 [Compound 103] | > 100
22 | CCOC(=O)c1c(NC(=O)COC(=O)c2cccc(NS(C)(=O)=O)c2)sc2c1CCN(C)C2 [Compound 104] | > 100
23 | CCOC(=O)c1cc(-c2ccccc2)sc1NC(=O)CN(c1cccc(CO)c1)S(C)(=O)=O [Compound 105] | > 100
24 | CCOC(=O)c1cc(-c2ccc(C(F)(F)F)cc2)sc1NC(=O)COC(=O)c1cccc(NS(C)(=O)=O)c1 [Compound 106] | > 100
25 | CCOC(=O)c1cc(-c2ccc(F)cc2)sc1NC(=O)COC(=O)c1cccc(NS(C)(=O)=O)c1 [Compound 108] | ≤ 25
26 | CCOC(=O)c1cc(-c2ccccc2)sc1NC(=O)C1CCCN1C(=O)c1cccc(NS(C)(=O)=O)c1 (stereo not shown) [Compound 109] | > 100
27 | CCOC(=O)c1cc(-c2ccccc2)sc1NC(=O)COC(=O)c1ccccc1NS(C)(=O)=O [Compound 110] | > 100
28 | CCOC(=O)c1cc(-c2ccccc2)sc1NC(=O)C1CCCN(C(=O)c2cccc(S(N)(=O)=O)c2)C1 (stereo not shown) [Compound 111] | > 100

Row | Structure (SMILES) | EC50 [µM]
29 | CCOC(=O)c1cc(-c2ccccc2)sc1NC(=O)COC(=O)c1cccc(NS(N)(=O)=O)c1 [Compound 112] | > 100
30 | CCOC(=O)c1ccc(-c2ccccc2)nc1NC(=O)COC(=O)c1cccc(NS(C)(=O)=O)c1 [Compound 113] | > 100
31 | CCOC(=O)c1cc(-c2cncnc2)sc1NC(=O)COC(=O)c1cccc(NS(N)(=O)=O)c1 [Compound 115] | > 100
32 | CCOC(=O)c1cc(-c2cccc(F)c2)sc1NC(=O)COC(=O)c1cccc(NS(C)(=O)=O)c1 [Compound 116] | > 100
33 | CCNC(=O)c1cc(-c2ccccc2)sc1NC(=O)COC(=O)c1cccc(NS(C)(=O)=O)c1 [Compound 117] | > 100
34 | CCOC(=O)c1cc(-c2ccc(F)cc2)sc1NC(=O)C1CCCN1C(=O)c1cccc(NS(C)(=O)=O)c1 (stereo not shown) [Compound 119] | > 100
35 | CCOC(=O)c1ccc(-c2ccccc2)cc1NC(=O)COC(=O)c1cccc(NS(C)(=O)=O)c1 [Compound 120] | > 100
36 | CCOC(=O)c1cc(-c2ccccc2)sc1NC(=O)CN(C)C(=O)c1cccc(S(N)(=O)=O)c1 [Compound 122] | > 100
37 | CS(=O)(=O)Nc1cccc(C(=O)OCC(=O)Nc2sc(-c3ccccc3)cc2C(=O)N2CCOCC2)c1 [Compound 123] | > 100
38 | CCOC(=O)c1cc(-c2ccccc2)sc1NC(=O)COC(=O)c1cccc(NS(=O)(=O)c2ccccc2)c1 [Compound 124] | > 100
39 | CCOC(=O)c1cc(-c2ccccc2)sc1NC(=O)COC(=O)c1cc(NS(C)(=O)=O)ccc1C [Compound 125] | > 100
40 | CCOC(=O)c1cc(-c2ccccc2)sc1NC(=O)COC(=O)Cc1cccc(NS(C)(=O)=O)c1 [Compound 126] | > 100
41 | CCOC(=O)c1cc(-c2ccccc2)sc1NC(=O)COC(=O)c1cc(NS(C)(=O)=O)c(F)cc1F [Compound 128] | > 100
42 | CCOC(=O)c1cc(-c2ccccc2)sc1NC(=O)COC(=O)c1cc(NS(C)(=O)=O)ccc1F [Compound 129] | > 100
43 | CCOC(=O)c1cc(-c2ccccc2)sc1NC(=O)COC(=O)c1cccc(NS(=O)(=O)C(C)C)c1 [Compound 131] | > 100
44 | CCCCS(=O)(=O)Nc1cccc(C(=O)OCC(=O)Nc2sc(-c3ccccc3)cc2C(=O)OCC)c1 [Compound 133] | > 100
45 | CCOC(=O)c1cc(-c2ccccc2)sc1NC(=O)COC(=O)c1cccc(NS(=O)(=O)CC)c1 [Compound 134] | > 100
46 | CCOC(=O)c1cc(-c2ccc(N3CCOCC3)cc2)sc1NC(=O)COC(=O)c1cccc(NS(C)(=O)=O)c1 [Compound 135] | > 100
47 | CCOC(=O)c1cc(-c2ccccc2)sc1NC(=O)COC(=O)c1cccc(NS(=O)(=O)N2CCOCC2)c1 [Compound 136] | > 100
48 | CCOC(=O)c1cc(-c2ccccc2)sc1NC(=O)C1CCN(C(=O)c2cccc(NS(C)(=O)=O)c2)C1 (stereo not shown) [Compound 138, Ethyl 2-(1-(3-(methylsulfonamido)benzoyl)pyrrolidine-3-carboxamido)-5-phenylthiophene-3-carboxylate] | ≤ 25
49 | CCOC(=O)c1cc(-c2ccccc2)sc1CC(=O)C1CCCN1C(=O)c1cccc(C#N)c1 (stereo not shown) [Compound 139] | > 100
50 | CCOC(=O)c1cc(-c2ccccc2)sc1NC(=O)COC(=O)c1cccc(NS(=O)(=O)N2CCCCC2)c1 [Compound 140] | > 100
51 | CCOC(=O)c1nc(-c2ccccc2)[nH]c1NC(=O)COC(=O)c1cccc(NS(C)(=O)=O)c1 [Compound 141] | > 100
52 | CCOC(=O)c1cc(-c2ccccc2)sc1NC(=O)COC(=O)C1CCCN(S(C)(=O)=O)C1 (stereo not shown) [Compound 142] | > 100
53 | CCOC(=O)c1cc(-c2ccccc2)sc1NC(=O)CN1CCN(S(C)(=O)=O)CC1 [Compound 143] | > 100
54 | CCOC(=O)c1nc(-c2ccccc2)oc1NC(=O)COC(=O)c1cccc(NS(C)(=O)=O)c1 [Compound 145] | > 100
55 | CCOC(=O)c1cc(-c2ccccc2)sc1NC(=O)C1CCN1C(=O)c1cccc(NS(C)(=O)=O)c1 (stereo not shown) [Compound 146] | > 100
